Values after ≈ are worked out from the molar mass of the structure shown. Values joined by “and” are separate entries in the source; they are usually repeats but may differ in a detail not shown here. Equal entries are not always repeated. Active and inactive are the calls of the source. The rule behind the calls is not given here.
How the values were obtained:
[1] = system: Mycobacterium tuberculosis; test: Additive antimycobacterial activity against Mycobacterium tuberculosis H37Rv ATCC 25618 assessed as fractional inhibitory concentration index incubated for 7 days by resazurin dye based two-dimensional micro dilution checkerboard assay in presence of amikacin; type: functional; conditions: time 7 day
[2] = system: Mycolicibacterium smegmatis; test: Antimycobacterial activity against Mycobacterium smegmatis ATCC607 assessed as reduction in bacterial viability at 16 uM measured after 72 hrs by time kill assay in presence of rifampicin relative to control; type: functional
[3] = system: Mycobacterium tuberculosis; test: Antimycobacterial activity against Mycobacterium tuberculosis H37Rv ATCC 25618 incubated for 7 days by resazurin dye based two-dimensional micro dilution checkerboard assay in presence of rifampicin; type: functional; conditions: time 7 day
[4] = system: Mycobacterium tuberculosis; test: Additive antimycobacterial activity against Mycobacterium tuberculosis H37Rv ATCC 25618 incubated for 7 days by resazurin dye based two-dimensional micro dilution checkerboard assay in presence of amikacin; type: functional; conditions: time 7 day
[5] = Cytotoxicity against mouse J774.A1 cells assessed as reduction in cell population incubated for 48 hrs by MTT assay; type: toxicity, cell-based
[6] = system: Klebsiella pneumoniae; test: Antibacterial activity against Klebsiella pneumoniae ATCC 13883 incubated for 18 hrs by resazurin dye based broth microdilution method; type: functional
[7] = system: Mycobacterium tuberculosis; test: Additive antimycobacterial activity against Mycobacterium tuberculosis H37Rv ATCC 25618 incubated for 7 days by resazurin dye based two-dimensional micro dilution checkerboard assay in presence of isoniazid; type: functional; conditions: time 7 day
[8] = system: Mycobacterium tuberculosis; test: Antimycobacterial activity against Mycobacterium tuberculosis H37Rv ATCC 25618 assessed as fractional inhibitory concentration index incubated for 7 days by resazurin dye based two-dimensional micro dilution checkerboard assay in presence of rifampicin; type: functional; conditions: time 7 day
[9] = system: Mycolicibacterium smegmatis; test: Antimycobacterial activity against Mycobacterium smegmatis ATCC607 incubated for 24 hrs by resazurin dye based broth microdilution method; type: functional
[10] = system: Mycobacterium tuberculosis; test: Additive antimycobacterial activity against Mycobacterium tuberculosis H37Rv ATCC 25618 assessed as fractional inhibitory concentration index incubated for 7 days by resazurin dye based two-dimensional micro dilution checkerboard assay in presence of levofloxacin; type: functional; conditions: time 7 day
[11] = system: Staphylococcus aureus; test: Antibacterial activity against Staphylococcus aureus ATCC 25923 incubated for 18 hrs by resazurin dye based broth microdilution method; type: functional
[12] = system: Mycobacterium tuberculosis; test: Additive antimycobacterial activity against Mycobacterium tuberculosis H37Rv ATCC 25618 assessed as fractional inhibitory concentration index incubated for 7 days by resazurin dye based two-dimensional micro dilution checkerboard assay in presence of isoniazid; type: functional; conditions: time 7 day
[13] = Cytotoxicity against human HepG2 cells assessed as reduction in cell population incubated for 48 hrs by MTT assay; type: toxicity, cell-based
[14] = system: Mycobacterium tuberculosis; test: Additive antimycobacterial activity against Mycobacterium tuberculosis H37Rv ATCC 25618 incubated for 7 days by resazurin dye based two-dimensional micro dilution checkerboard assay in presence of levofloxacin; type: functional; conditions: time 7 day
[15] = system: Mycobacterium tuberculosis; test: Additive antimycobacterial activity against Mycobacterium tuberculosis H37Rv ATCC 25618 incubated for 7 days by resazurin dye based two-dimensional micro dilution checkerboard assay in presence of ethambutol; type: functional; conditions: time 7 day
[16] = system: Mycobacterium tuberculosis; test: Additive antimycobacterial activity against Mycobacterium tuberculosis H37Rv ATCC 25618 assessed as fractional inhibitory concentration index incubated for 7 days by resazurin dye based two-dimensional micro dilution checkerboard assay in presence of ethambutol; type: functional; conditions: time 7 day
[17] = system: Mycobacterium tuberculosis; test: Potency index, ratio of ethambutol MIC to test compound MIC for antimycobacterial activity against isoniazid, rifampicin, ethambutol and pyrazinamide sensitive Mycobacterium tuberculosis H37Rv ATCC 25618 assessed as inhibition of bacterial growth incubated for 7 days by resazurin dye based colorimetric method analysis; type: functional; conditions: time 7 day
[18] = system: Mycobacterium tuberculosis; test: Antimycobacterial activity against isoniazid, rifampicin, ethambutol and pyrazinamide sensitive Mycobacterium tuberculosis H37Rv ATCC 25618 assessed as inhibition of bacterial growth incubated for 7 days by resazurin dye based colorimetric method analysis; type: functional; conditions: H37Rv ATCC 25618, 168 h, time 7 day
[19] = system: Mycobacterium tuberculosis; test: Additive antimycobacterial activity against Mycobacterium tuberculosis H37Rv ATCC 25618 assessed as fractional inhibitory concentration index incubated for […] by micro dilution checkerboard assay in presence of rifampicin; type: functional
[20] = Cytotoxicity against African green monkey Vero cells assessed as reduction in cell population incubated for 48 hrs by MTT assay; type: toxicity, cell-based; conditions: chlorocebus sabaeus
[21] = system: Mycolicibacterium smegmatis; test: Antimycobacterial activity against Mycobacterium smegmatis ATCC607 assessed as reduction in bacterial viability at 16 uM incubated for 24 hrs by time kill assay relative to control; type: functional
[22] = system: Mycolicibacterium smegmatis; test: Antimycobacterial activity against Mycobacterium smegmatis ATCC607 assessed as reduction in bacterial viability at 19.5 uM incubated for 24 hrs by time kill assay relative to control; type: functional
[23] = system: Mycobacterium tuberculosis; test: Antimycobacterial activity against Mycobacterium tuberculosis H37Rv ATCC 25618 incubated for 7 days by resazurin dye based two-dimensional micro dilution checkerboard assay in presence of 1-(benzyloxy)heptadecan-2-amine; type: functional; conditions: time 7 day
[24] = system: Mycobacterium tuberculosis; test: Antimycobacterial activity against Mycobacterium tuberculosis H37Rv ATCC 25618 incubated for 7 days by resazurin dye based two-dimensional micro dilution checkerboard assay in presence of 1-((3,4,5-trimethoxybenzyl)oxy)heptadecan-2-amine; type: functional; conditions: time 7 day
[25] = system: Mycolicibacterium smegmatis; test: Antimycobacterial activity against Mycobacterium smegmatis ATCC607 infected in mouse J774 cells assessed as reduction in intracellular bacterial count at 19.5 to 39 uM measured after 24 hrs; type: functional, organism-based; conditions: dose 19.5-39 µM
[26] = system: Mycobacterium tuberculosis; test: Antimycobacterial activity against Mycobacterium tuberculosis H37Rv ATCC 25618 assessed as fractional inhibitory concentration incubated for 7 days in presence of 2-aminoheptadecan-1-ol by resazurin dye based two-dimensional micro dilution checkerboard assay; type: functional; conditions: time 7 day
[27] = system: Mycobacterium tuberculosis; test: Antimycobacterial activity against Mycobacterium tuberculosis H37Rv ATCC 25618 assessed as reduction in concentration required to inhibit bacterial growth incubated for 7 days by resazurin dye based two-dimensional micro dilution checkerboard assay in presence of rifampicin relative to control; type: functional; set-up: scale not given: the % may be the effect or the level left; conditions: time 7 day
[28] = system: Mycobacterium tuberculosis; test: Synergistic antimycobacterial activity against Mycobacterium tuberculosis H37Rv ATCC 25618 assessed as fractional inhibitory concentration index incubated for 7 days by resazurin dye based two-dimensional micro dilution checkerboard assay in presence of rifampicin; type: functional; conditions: time 7 day
[29] = system: Mycobacterium tuberculosis; test: Synergistic antimycobacterial activity against Mycobacterium tuberculosis H37Rv ATCC 25618 incubated for 7 days by resazurin dye based two-dimensional micro dilution checkerboard assay in presence of rifampicin; type: functional; conditions: time 7 day
[30] = system: Mycobacterium tuberculosis; test: Antimycobacterial activity against Mycobacterium tuberculosis H37Rv ATCC 25618 assessed as induction of morphological changes by measuring increase in lipid inclusions at MIC incubated for 96 hrs by TEM analysis; type: functional, organism-based
[31] = system: Mycobacterium tuberculosis; test: Antimycobacterial activity against Mycobacterium tuberculosis H37Rv ATCC 25618 assessed as induction of morphological changes by measuring extrusion of cytosolic material at MIC incubated for 96 hrs by TEM analysis; type: functional, organism-based
[32] = system: Mycobacterium tuberculosis; test: Antimycobacterial activity against Mycobacterium tuberculosis H37Rv ATCC 25618 assessed as induction of morphological changes by measuring disruption and discontinuity of the bacterial envelope at MIC incubated for 96 hrs by TEM analysis; type: functional, organism-based

SMILES | CC50 at 48 h [5] | MIC [6] | MIC [9] | MIC [11] | CC50 at 48 h [13] | Ratio [17] | MIC [18] | CC50 at 48 h [20] | FIC [23] | FIC [24] | FIC [26] | also measured
CCCCCCCCCCCCCCCC(N)COCc1ccccc1 (stereo not given) | 5.94 µM | 128 µM (≈ 46.3 µg/mL) | 16 µM (≈ 5.79 µg/mL) | 16 µM (≈ 5.79 µg/mL) | 99.2 µM | 80 | 4.5 µM (≈ 1.63 µg/mL) | 42.2 µM | – | – | – | fractional inhibitory concentration index (FICI) [1]: 0.75; Activity [2]: >99.9%; FIC [3]: 0.5; FIC [4]: 0.5; FIC [7]: 0.25; fractional inhibitory concentration index (FICI) [8]: 0.56; fractional inhibitory concentration index (FICI) [10]: 0.75; fractional inhibitory concentration index (FICI) [12]: 0.75; FIC [14]: 0.25; FIC [15]: 0.5; fractional inhibitory concentration index (FICI) [16]: 1; fractional inhibitory concentration index (FICI) [19]: 0.56; Activity [21]: 24.56%
CO[C@H]1/C=C/O[C@@]2(C)Oc3c(C)c(O)c4c(O)c(c(/C=N/N5CCN(C)CC5)c(O)c4c3C2=O)NC(=O)/C(C)=C\C=C\[C@H](C)[C@H](O)[C@@H](C)[C@@H](O)[C@@H](C)[C@H](OC(C)=O)[C@@H]1C [RIFAMPIN] | – | – | 19.5 µM (≈ 16 µg/mL) | – | – | – | 0.04 µM and 0.03 µg/mL | – | 0.063 | 0.25 | – | Activity [22]: 27%; Activity [25]: Active
NNC(=O)c1ccncc1 [ISONIAZID] | – | – | – | – | – | – | 0.91 µM and 0.13 µg/mL | – | 0.5 | 0.5 | 0.5 | –
CCCCCCCCCCCCCCCC(N)CO (stereo not given) | 10.2 µM | 512 µM (≈ 139 µg/mL) | 128 µM (≈ 34.8 µg/mL) | 16 µM (≈ 4.34 µg/mL) | 129 µM | 237 | 1.52 µM (≈ 0.413 µg/mL) | 125 µM | – | – | – | fractional inhibitory concentration index (FICI) [1]: 0.56; Activity [27]: 87.5%; fractional inhibitory concentration index (FICI) [28]: 0.38; FIC [4]: 0.5; FIC [29]: 0.25; FIC [7]: 0.25; fractional inhibitory concentration index (FICI) [10]: 0.53; fractional inhibitory concentration index (FICI) [12]: 0.75; FIC [14]: 0.5; FIC [15]: 0.5; fractional inhibitory concentration index (FICI) [16]: 0.63
NCC[C@H](O)C(=O)N[C@@H]1C[C@H](N)[C@@H](O[C@H]2O[C@H](CN)[C@@H](O)[C@H](O)[C@H]2O)[C@H](O)[C@H]1O[C@H]1O[C@H](CO)[C@@H](O)[C@H](N)[C@H]1O [AMIKACIN] | – | – | 1 µM (≈ 0.586 µg/mL) | – | – | – | 0.1 µM and 0.08 µg/mL | – | 0.25 | 0.5 | 0.063 | –
CC[C@@H](CO)NCCN[C@@H](CC)CO [ETHAMBUTOL] | > 1440 µM | – | – | – | > 1440 µM | 100 | 3.6 µM and 1 µg/mL | 641 µM | 0.5 | 0.5 | 0.125 | Activity [30]: Active; Activity [31]: Active; Activity [32]: Active
CCCCCCCCCCCCCCCC(CNCC)NC(=O)OC(C)(C)C (stereo not given) | 19.8 µM | 512 µM (≈ 204 µg/mL) | 32 µM (≈ 12.8 µg/mL) | ≤ 4 µM | 107 µM | 23 | 16 µM (≈ 6.38 µg/mL) | 17.7 µM | – | – | – | –
CCCCCCCCCCCCCCCCCC(N)CO (stereo not given) | 9.65 µM | > 512 µM | 256 µM (≈ 76.7 µg/mL) | 256 µM (≈ 76.7 µg/mL) | 200 µM | 45 | 8 µM (≈ 2.4 µg/mL) | 53.2 µM | – | – | – | –
CCCCCCCCCCCCCCCCCCCC(COCc1ccccc1)NCC (stereo not given) | 52.3 µM | > 512 µM | 128 µM (≈ 57.1 µg/mL) | > 512 µM | 95.1 µM | 23 | 16 µM (≈ 7.13 µg/mL) | 67.8 µM | – | – | – | –
CCCCCCCCCCCCCCCC(COCc1ccccc1)NCC (stereo not given) | 21.6 µM | > 512 µM | 32 µM (≈ 12.5 µg/mL) | 16 µM (≈ 6.23 µg/mL) | 237 µM | 23 | 16 µM (≈ 6.23 µg/mL) | 26 µM | – | – | – | –
C[C@H]1COc2c(N3CCN(C)CC3)c(F)cc3c(=O)c(C(=O)O)cn1c23 [LEVOFLOXACIN ANHYDROUS] | – | – | – | – | – | – | 0.35 µM and 0.13 µg/mL | – | 0.5 | 0.5 | 0.031 | –
CCCCCCCCCCCCCCCCCC(CO)NCC (stereo not given) | 135 µM | 512 µM (≈ 168 µg/mL) | 64 µM (≈ 21 µg/mL) | 32 µM (≈ 10.5 µg/mL) | 192 µM | 23 | 16 µM (≈ 5.24 µg/mL) | 23.6 µM | – | – | – | –
